Results as given in ChEMBL document CHEMBL1201862, “PubChem BioAssay data set” (2004).
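These data come from cells grown in 96-well plates and exposed to compound for 48 hours at five concentrations. Abbreviation: GI50, concentration required for 50% inhibition of growth.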 Calls of active or inactive are those of the source. Rule as the data show it: active = GI50 up to about 1.1 µM and inactive = higher.

Experiments:
Experiment in all cases: NCI tumour cell line growth inhibition, 48 h
786-0 = system: 786-0
A549 = system: A549
DU-145 = system: DU-145
EKVX = system: EKVX
HCC 2998 = system: HCC 2998
HL-60 = system: HL-60
M14 = system: M14
MCF7 = system: MCF7
MDA-MB-231 = system: MDA-MB-231
NCI-H522 = system: NCI-H522
NCI/ADR-RES = system: NCI/ADR-RES
PC-3 = system: PC-3
SF-295 = system: SF-295
SR = system: SR
SW-620 = system: SW-620
UACC-257 = system: UACC-257
UACC-62 = system: UACC-62

For `COc1cccc(-c2cc(O)c3cc(N4CCN(C)CC4)ccc3n2)c1`, the GI50 (786-0) was 2.96 µM (inactive), the GI50 (A549) was 2.39 µM (inactive) and the GI50 (DU-145) was 3.21 µM (inactive). For the same molecule, the GI50 (EKVX) was 3.37 µM (inactive), the GI50 (HCC 2998) was 2.01 µM (inactive) and the GI50 (HL-60) was 0.537 µM (active). The GI50 (M14) was 1.99 µM (inactive), the GI50 (MCF7) was 2.67 µM (inactive) and the GI50 (MDA-MB-231) was 3.34 µM (inactive). The GI50 (NCI-H522) was 1.57 µM (inactive), the GI50 (NCI/ADR-RES) was 1.47 µM (inactive) and the GI50 (PC-3) was 2.44 µM (inactive). The GI50 (SF-295) was 1.71 µM (inactive), the GI50 (SR) was 0.42 µM (active) and the GI50 (SW-620) was 0.522 µM (active). For the same molecule, the GI50 (UACC-257) was 0.706 µM (active) and the GI50 (UACC-62) was 1.28 µM (inactive).

In the case of `Cc1cc2c(cc1C)NC1=C(O)C(c3c[nH]c4ccc(COc5ccccc5)cc34)OC1=N2` (stereo not given), the GI50 (786-0) is reported as 30.5 µM (inactive), the GI50 (A549) is reported as > 100 µM (inactive) and the GI50 (DU-145) is reported as > 100 µM (inactive). For the same molecule, the GI50 (EKVX) was 37.8 µM (inactive), the GI50 (HCC 2998) was 17.1 µM (inactive) and the GI50 (HL-60) was > 100 µM (inactive). For the same molecule, the GI50 (M14) was > 100 µM (inactive), the GI50 (MCF7) was 72.1 µM (inactive) and the GI50 (MDA-MB-231) was 22.3 µM (inactive). For the same molecule, the GI50 (NCI-H522) was > 100 µM (inactive), the GI50 (NCI/ADR-RES) was > 100 µM (inactive) and the GI50 (PC-3) was > 100 µM (inactive). For the same molecule, the GI50 (SF-295) was 33.6 µM (inactive), the GI50 (SR) was 65.9 µM (inactive) and the GI50 (SW-620) was > 100 µM (inactive). The GI50 (UACC-257) was 50 µM (inactive) and the GI50 (UACC-62) was > 100 µM (inactive).

For `Cn1c(=S)c2nc(SCc3cccnc3)[nH]c2n(C)c1=O`, the GI50 (786-0) was > 100 µM (inactive), the GI50 (A549) was > 100 µM (inactive) and the GI50 (DU-145) was > 100 µM (inactive). The GI50 (EKVX) was > 100 µM (inactive), the GI50 (HCC 2998) was > 100 µM (inactive) and the GI50 (HL-60) was > 100 µM (inactive). For the same molecule, the GI50 (M14) was > 100 µM (inactive), the GI50 (MCF7) was > 100 µM (inactive) and the GI50 (MDA-MB-231) was > 100 µM (inactive). The GI50 (NCI-H522) was 82 µM (inactive), the GI50 (NCI/ADR-RES) was > 100 µM (inactive) and the GI50 (PC-3) was > 100 µM (inactive). The GI50 (SF-295) was 97.7 µM (inactive), the GI50 (SR) was > 100 µM (inactive) and the GI50 (SW-620) was > 100 µM (inactive). For the same molecule, the GI50 (UACC-257) was > 100 µM (inactive) and the GI50 (UACC-62) was > 100 µM (inactive).

`O=C(COC(=O)c1ccccc1)c1ccc(Br)cc1` was tested, and the GI50 (786-0) was 2.41 µM (inactive), the GI50 (A549) was 17.2 µM (inactive) and the GI50 (DU-145) was 19.5 µM (inactive). The GI50 (EKVX) was 14.7 µM (inactive), the GI50 (HCC 2998) was 13.3 µM (inactive) and the GI50 (HL-60) was 6.64 µM (inactive). The GI50 (M14) was 14.5 µM (inactive), the GI50 (MCF7) was 5.53 µM (inactive) and the GI50 (MDA-MB-231) was 14.3 µM (inactive). For the same molecule, the GI50 (NCI-H522) was 1.63 µM (inactive), the GI50 (NCI/ADR-RES) was 21 µM (inactive) and the GI50 (PC-3) was 16.3 µM (inactive). For the same molecule, the GI50 (SF-295) was 15.8 µM (inactive), the GI50 (SR) was 2.15 µM (inactive) and the GI50 (SW-620) was 6 µM (inactive). The GI50 (UACC-257) was 15.5 µM (inactive) and the GI50 (UACC-62) was 13 µM (inactive).

For `CC(=O)Oc1cccc2c1C(=O)CCCC2`, the GI50 (786-0) was > 100 µM (inactive), the GI50 (A549) was > 100 µM (inactive) and the GI50 (DU-145) was > 100 µM (inactive). The GI50 (EKVX) was > 100 µM (inactive), the GI50 (HCC 2998) was > 100 µM (inactive) and the GI50 (HL-60) was > 100 µM (inactive). For the same molecule, the GI50 (M14) was > 100 µM (inactive), the GI50 (MCF7) was > 100 µM (inactive) and the GI50 (MDA-MB-231) was > 100 µM (inactive). For the same molecule, the GI50 (NCI-H522) was > 100 µM (inactive), the GI50 (NCI/ADR-RES) was > 100 µM (inactive) and the GI50 (PC-3) was > 100 µM (inactive). The GI50 (SF-295) was > 100 µM (inactive), the GI50 (SR) was > 100 µM (inactive) and the GI50 (SW-620) was > 100 µM (inactive). For the same molecule, the GI50 (UACC-257) was > 100 µM (inactive) and the GI50 (UACC-62) was > 100 µM (inactive).

For `CCOC(=O)N1c2ccccc2N(C(=O)OCC)C1CC(=O)/C=C/c1ccccc1`, the GI50 (786-0) was 3.3 µM (inactive), the GI50 (A549) was 3.36 µM (inactive) and the GI50 (DU-145) was 2.69 µM (inactive). The GI50 (EKVX) was 2.79 µM (inactive), the GI50 (HCC 2998) was 3 µM (inactive) and the GI50 (HL-60) was 2.61 µM (inactive). For the same molecule, the GI50 (M14) was 4.45 µM (inactive), the GI50 (MCF7) was 3.1 µM (inactive) and the GI50 (MDA-MB-231) was 4.03 µM (inactive). For the same molecule, the GI50 (NCI-H522) was 1.78 µM (inactive), the GI50 (NCI/ADR-RES) was 2.73 µM (inactive) and the GI50 (PC-3) was 3.94 µM (inactive). The GI50 (SF-295) was 4.05 µM (inactive), the GI50 (SR) was 2.3 µM (inactive) and the GI50 (SW-620) was 2.06 µM (inactive). The GI50 (UACC-257) was 6.49 µM (inactive) and the GI50 (UACC-62) was 2.7 µM (inactive).

`COC(=O)c1ccccc1CC(Cc1ccccc1)C(=O)OC` (stereo not given) was tested, and the GI50 (786-0) was 71.3 µM (inactive), the GI50 (A549) was 61.9 µM (inactive) and the GI50 (DU-145) was > 100 µM (inactive). For the same molecule, the GI50 (EKVX) was 45.9 µM (inactive), the GI50 (HCC 2998) was 40.3 µM (inactive) and the GI50 (HL-60) was 18.5 µM (inactive). The GI50 (M14) was 68.7 µM (inactive), the GI50 (MCF7) was 82 µM (inactive) and the GI50 (MDA-MB-231) was > 100 µM (inactive). For the same molecule, the GI50 (NCI-H522) was 50.6 µM (inactive), the GI50 (NCI/ADR-RES) was 42.5 µM (inactive) and the GI50 (PC-3) was 47.1 µM (inactive). The GI50 (SF-295) was > 100 µM (inactive), the GI50 (SR) was 27 µM (inactive) and the GI50 (SW-620) was > 100 µM (inactive). For the same molecule, the GI50 (UACC-257) was 72.1 µM (inactive).

In the case of `CC1=NN(C(=O)CSc2nc3ccc(I)cc3c(=O)n2Cc2ccccc2)C(=O)C1`, the GI50 (786-0) is reported as 36.9 µM (inactive), the GI50 (A549) is reported as 34 µM (inactive) and the GI50 (DU-145) is reported as 37.1 µM (inactive). For the same molecule, the GI50 (EKVX) was 23.6 µM (inactive), the GI50 (HCC 2998) was 39.1 µM (inactive) and the GI50 (HL-60) was 33.3 µM (inactive). For the same molecule, the GI50 (M14) was 31.7 µM (inactive), the GI50 (MCF7) was 22.8 µM (inactive) and the GI50 (MDA-MB-231) was 16.9 µM (inactive). The GI50 (NCI-H522) was 7.05 µM (inactive), the GI50 (NCI/ADR-RES) was 20.9 µM (inactive) and the GI50 (PC-3) was 17.2 µM (inactive). The GI50 (SF-295) was 27.3 µM (inactive), the GI50 (SR) was 16.9 µM (inactive) and the GI50 (SW-620) was 46.5 µM (inactive). For the same molecule, the GI50 (UACC-257) was 34 µM (inactive) and the GI50 (UACC-62) was 26.4 µM (inactive).
